Reference: patent US20250213701A1, “MEDICAMENT FOR TREATING HUMAN TUMOR BASED ON ERF3A-TARGETING PROTEOLYSIS MECHANISM” (SUZHOU DEGEN BIO-MEDICAL CO., LTD., priority 2022, published 2025)

What was measured:
Format in all cases: cell-based
GSPT1 = target: T1, GSPT1 (Homo sapiens, UniProt P15170+Q96SW2); assay: Western blot assay in 22Rv1 cells: GSPT1; conditions: different concentrations at 24 h, and 3 nM at different time points (FIGS. 7 and 8)
T1 construct: The downregulation of SRD5A3 and GSPT1 (eRF3a) proteins in PC-3 and HepG2 cells by C59; endogenous in cells; host or cells: 22Rv1, PC-3, HepG2
Source text: (§1) Example 84: Western Blot Assay of Compound C59 in 22Rv1, PC-3, and HepG2 Cells
(§2) (1) Materials: 22Rv1, PC-3, and HepG2 cell, anti-SRD5A1 antibody (ab167606), anti-SRD5A2 antibody (ab124877), anti-SRD5A3 antibody (PA5-107029), anti-androgen receptor (AR) antibody (CST, No. 5153), anti-GSPT1 antibody (Abcam, ab234433), anti-GADPH antibody (CST, No. 5174), anti-c-Myc antibody (CST, No. 8583), anti-α-tublin antibody (CST, No. 2125), anti-rabbit IgG, HRP-linked antibody (CST, No. 7074), electrophoresis device and membrane transfer device (LIUYI, BEIJING; DYCZ-24DN)
(§3) Cell seeding: 22Rv1 (Cell Bank of the Chinese Academy of Sciences, TCHu100), PC-3 (Cell Bank of the Chinese Academy of Sciences, SCSP-532) and HepG2 cells (Cell Bank of the Chinese Academy of Sciences, TCHu72) were subcultured and trypsinized to prepare 6×10^5 cells/mL suspensions, seeded on 6-well plates (3 mL/well), and cultured overnight in a cell incubator at 5% CO2 and 37° C. […]
(§4) Protein quantification: The protein was quantified using a BCA protein quantification kit. […]
(§5) Western immunoblot assay (or Western blot, WB): SDS-PAGE gel at a proper concentration was prepared according to the molecular weight of the target protein: for example, the concentration of the separation gel was 8% and the concentration of the stacking gel was 5%. The loading volume was adjusted according to the protein quantification results. […]

SRD5A3 = target: T2, SRD5A3 (Homo sapiens, UniProt Q9H8P0); assay: Western blot assay in PC-3 cells: SRD5A3; conditions: different concentrations at 24 h (FIG. 9)
T2 construct: The downregulation of SRD5A3 and GSPT1 (eRF3a) proteins in PC-3 and HepG2 cells by C59; endogenous in cells; host or cells: 22Rv1, PC-3, HepG2
T2 sequence (Q9H8P0 1-318): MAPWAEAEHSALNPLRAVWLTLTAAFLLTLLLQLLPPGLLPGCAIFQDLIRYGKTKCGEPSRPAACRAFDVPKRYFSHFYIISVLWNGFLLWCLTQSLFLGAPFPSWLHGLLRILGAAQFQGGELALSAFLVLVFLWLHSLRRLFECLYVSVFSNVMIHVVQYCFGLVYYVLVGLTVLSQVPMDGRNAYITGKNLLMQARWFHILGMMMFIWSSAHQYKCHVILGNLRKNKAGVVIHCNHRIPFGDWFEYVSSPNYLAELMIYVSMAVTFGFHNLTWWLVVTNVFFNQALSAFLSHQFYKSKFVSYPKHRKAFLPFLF
Source text: as §1, §2, §3, §4, §5

BxPC-3 cells = assay: Anti-proliferative toxicity of C63 in tumor cell lines (CCK8): BxPC-3; conditions: Homo sapiens, 72 h, 3 days, read-out: Inhibition rate
Experimental: Example 83: Detection of Anti-Proliferative Toxicity of C63 in Some Tumor Cell Lines
BxPC-3 cells (purchased from the Cell Bank of the Chinese Academy of Sciences, Cat. No. TCHu12) were subcultured in a culture medium (RPMI-1640 medium+1% penicillin-streptomycin dual-antibiotic solution+10% fetal bovine serum) in an incubator at 5% carbon dioxide and 37° C.
BxPC-3 cells were seeded at 3000 cells/well (90 μL) on a 96-well plate and cultured for 24 h.
10 mM compound stock solutions were prepared in DMSO.
The compound stock solution was diluted with DMSO to give DMSO solutions 1-9 at concentrations of 0 μM, 2500 μM, 500 μM, 100 μM, 20 μM, 4 μM, 0.8 μM, 0.16 μM, and 0.032 μM.
2 μL of each of solutions 1-9 was added to 98 μL of the medium to give mixed solutions 11-19 of the compound and the medium.
10 μL of each of solutions 11-19 was added to the above cell seed solution to give a total volume of 100 μL (90 μL+10 μL).
The concentrations of the compound in the wells were 0 μM, 5.0 μM, 1.0 μM, 0.2 μM, 0.04 μM, 0.008 μM, 0.0016 μM, 0.00032 μM, and 0.000064 μM. All concentrations were in triplicate.
After the above-treated cells were cultured for 3 days, 10 μL of the CCK8 solution (DOJINDO, Cat. No. PF725) was added to each well. The plate was incubated in an incubator at 37° C. for 1-4 h and then detected on a microplate reader for the reading at 450 nm.

T1 sequence (P15170 1-637 isoform P15170-3): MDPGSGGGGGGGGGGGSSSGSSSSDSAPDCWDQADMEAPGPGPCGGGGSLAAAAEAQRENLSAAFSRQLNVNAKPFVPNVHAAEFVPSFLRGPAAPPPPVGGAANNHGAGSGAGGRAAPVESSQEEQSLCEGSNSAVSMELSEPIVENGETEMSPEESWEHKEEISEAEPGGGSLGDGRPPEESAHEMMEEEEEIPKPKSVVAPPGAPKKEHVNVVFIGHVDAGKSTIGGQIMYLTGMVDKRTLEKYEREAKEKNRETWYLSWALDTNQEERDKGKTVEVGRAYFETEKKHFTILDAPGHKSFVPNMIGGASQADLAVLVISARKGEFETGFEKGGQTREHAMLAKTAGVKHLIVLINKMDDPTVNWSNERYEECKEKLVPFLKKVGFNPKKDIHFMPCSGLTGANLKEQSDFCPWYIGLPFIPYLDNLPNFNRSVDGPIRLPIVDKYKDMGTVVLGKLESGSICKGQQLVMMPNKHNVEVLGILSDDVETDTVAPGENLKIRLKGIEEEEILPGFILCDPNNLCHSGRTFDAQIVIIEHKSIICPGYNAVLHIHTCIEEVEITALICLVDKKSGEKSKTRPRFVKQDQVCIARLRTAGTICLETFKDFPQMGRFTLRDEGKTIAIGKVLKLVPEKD
T1 sequence (Q96SW2 whole entry): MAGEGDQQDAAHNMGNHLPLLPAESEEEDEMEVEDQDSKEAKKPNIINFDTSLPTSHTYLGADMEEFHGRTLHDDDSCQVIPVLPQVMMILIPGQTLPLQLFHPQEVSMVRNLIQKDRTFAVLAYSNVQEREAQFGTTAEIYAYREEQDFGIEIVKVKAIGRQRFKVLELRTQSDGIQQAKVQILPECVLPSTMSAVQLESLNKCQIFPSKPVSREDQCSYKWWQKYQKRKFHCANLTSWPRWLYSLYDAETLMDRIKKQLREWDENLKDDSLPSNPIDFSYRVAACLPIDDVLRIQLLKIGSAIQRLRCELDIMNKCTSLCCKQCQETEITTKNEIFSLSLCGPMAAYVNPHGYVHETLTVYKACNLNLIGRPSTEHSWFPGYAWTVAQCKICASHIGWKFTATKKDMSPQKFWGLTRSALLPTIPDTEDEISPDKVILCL
T1 sequence (Q16531 whole entry partner): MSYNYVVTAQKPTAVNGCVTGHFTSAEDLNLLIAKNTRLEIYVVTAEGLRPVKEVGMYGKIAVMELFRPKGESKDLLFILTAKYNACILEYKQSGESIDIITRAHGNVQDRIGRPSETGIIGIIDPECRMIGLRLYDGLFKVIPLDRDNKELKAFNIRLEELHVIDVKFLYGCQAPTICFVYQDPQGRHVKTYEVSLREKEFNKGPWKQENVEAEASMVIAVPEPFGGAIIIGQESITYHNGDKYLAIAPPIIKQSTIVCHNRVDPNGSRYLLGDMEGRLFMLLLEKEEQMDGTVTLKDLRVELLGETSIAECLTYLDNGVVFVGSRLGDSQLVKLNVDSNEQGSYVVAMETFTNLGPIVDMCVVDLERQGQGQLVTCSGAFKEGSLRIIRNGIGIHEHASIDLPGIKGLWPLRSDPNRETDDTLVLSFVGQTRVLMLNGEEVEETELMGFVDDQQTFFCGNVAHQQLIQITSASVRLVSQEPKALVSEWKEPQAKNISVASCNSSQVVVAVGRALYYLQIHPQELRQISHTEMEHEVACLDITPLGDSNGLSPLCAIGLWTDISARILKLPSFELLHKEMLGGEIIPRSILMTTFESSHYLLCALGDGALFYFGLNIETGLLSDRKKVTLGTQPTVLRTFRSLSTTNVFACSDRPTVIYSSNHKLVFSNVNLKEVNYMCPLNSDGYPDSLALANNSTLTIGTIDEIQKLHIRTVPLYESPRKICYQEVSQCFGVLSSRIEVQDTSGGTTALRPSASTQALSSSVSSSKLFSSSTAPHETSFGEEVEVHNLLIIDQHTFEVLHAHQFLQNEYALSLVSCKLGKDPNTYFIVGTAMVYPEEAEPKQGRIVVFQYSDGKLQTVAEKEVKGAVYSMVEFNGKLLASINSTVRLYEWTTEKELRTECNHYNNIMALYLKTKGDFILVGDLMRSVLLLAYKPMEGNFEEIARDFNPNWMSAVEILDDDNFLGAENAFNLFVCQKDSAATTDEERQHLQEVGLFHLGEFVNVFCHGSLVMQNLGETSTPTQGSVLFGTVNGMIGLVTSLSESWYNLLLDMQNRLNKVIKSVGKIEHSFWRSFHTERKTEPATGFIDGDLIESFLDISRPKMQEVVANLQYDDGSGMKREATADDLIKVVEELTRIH

downregulation of GSPT1 protein (Western blot) (GSPT1) | downregulation of SRD5A3 protein (Western blot) (SRD5A3) | Compound | inhibition at 64 pM (BxPC-3 cells; 0.000064 μM) [%] | inhibition at 0.00032 µM (BxPC-3 cells; 0.000320 μM) [%] | inhibition at 0.0016 µM (BxPC-3 cells; 0.001600 μM) [%] | inhibition at 0.008 µM (BxPC-3 cells; 0.008000 μM) [%] | inhibition at 0.04 µM (BxPC-3 cells; 0.040000 μM) [%] | inhibition at 0.2 µM (BxPC-3 cells; 0.200000 μM) [%] | inhibition at 1 µM (BxPC-3 cells; 1.000000 μM) [%] | inhibition at 5 µM (BxPC-3 cells; 5.000000 μM) [%]
downregulation | downregulation | C[C@]12C=CC(=O)N[C@@H]1CC[C@@H]1[C@@H]2CC[C@]2(C)[C@@H](C(=O)Nc3cccc(N[C@@H]4CCC[C@@H](Nc5cccc6c5C(=O)N(C5CCC(=O)NC5=O)C6=O)C4)c3)CC[C@@H]12 (stereo partly drawn) [C59, N-(3-(N—(N-(4-(2-(3-(2,6-dioxopiperidine))-isoindole-1,3-dione))-1R,3R-cyclohexanediamine))phenyl)-3-oxo-4-aza-5α-androst-1-ene-17β-carboxamide] |  |  |  |  |  |  |  | 
 |  | C[C@]12C=CC(=O)N[C@@H]1CC[C@@H]1[C@@H]2CC[C@]2(C)[C@@H](C(=O)Nc3cccc(N[C@@H]4CCC[C@@H](Nc5cccc6c5C(=O)N([C@H]5CCC(=O)NC5=O)C6=O)C4)c3)CC[C@@H]12 [C63, N-(3-(N—(N-(4-(2-(3S-(2,6-dioxopiperidine))-isoindole-1,3-dione))-1R,3R-cyclohexanediamine))phenyl)-3-oxo-4-aza-5α-androst-1-ene-17β-carboxamide] | 3.64 | 22.6 | 56.5 | 68.2 | 71.6 | 72.9 | 76.5 | 80.2
